Data published in patent US20190054041A1, “USE OF NOOTKATONE” (INSTITUTE OF TROPICAL BIOSCIENCE AND BIOTECHOLOGY CHINESE …, priority 2016, published 2019).

Key:
ICR mice [1] = assay: Tail suspension test of mice; conditions: once a day for 14 days, 1.5 h after last administration, last 4 min of 6 min, blank control 151.1 ± 20.1, **P < 0.01
patients with depression = assay: Clinical efficacy observation by reduction rate of HAM-D; format: in vivo, human; conditions: 40 patients, oral 1.5 mg nootkatone monomer/Kg/time, twice a day, 6 weeks
Source text: Forty patients were selected, wherein 20 were male and 20 were female, and their disease durations were from 1 month to 2 years. Diagnosis criteria of depression that conformed to Chinese Classification and Diagnostic Criteria of Mental Disorders scored […] according to the first 17 items in the Hamilton Depression Rating Scale (HAM-D) shown in Table 4. First-onset patients, or patients that had not taken antidepressants and antipsychotics and had not been subjected to electric shock therapy over the past week, and patients with depressive episodes of unipolar affective disorder, aged 20-50 years. Patients having depressive disorder caused by bipolar affective disorder and other causes, severe suicidal tendency, and severe abnormalities in laboratory tests (pregnant or lactating women) were eliminated.
Comment: 0 to 4 in the items of Standard for Evaluation and Point referred to the scores, and the standard for evaluation is: the total score <7 means normality; the total score between 7 and 17 means possible depression; the total score between 17 and 24 means definite depression; and the total score >24 means severe depression.
Nootkatone preparation was used to treat the 40 patients, and the administration manner was: orally taking, 1.5 mg nootkatone monomer/Kg/time, twice a day, and 6 weeks were one course of treatment. […] After 1 course of treatment, reduction rate of HAM-D was used to measure the curative efficacy of the traditional Chinese medicine on patients, reduction rate of HAM-D=(total scores before the treatment−total scores after the treatment)/total scores before the treatment×100%.
The standard of curative efficacy evaluation is hereinafter:
cure: reduction rate of HAMD is >75%;
improved: reduction rate of HAMD is from 25% to […];
invalid: reduction rate of HAMD is <25%.

ICR mice [2] = conditions: intragastric once a day for 14 days, nootkatone 1-2 mg/Kg, Prozac 20 mg/Kg
ICR mice [3] = assay: Forced swimming test of mice; conditions: once a day for 14 days, 1.5 h after last administration, last 4 min of 6 min, blank control 148.1 ± 18.9, **P < 0.01
ICR mice [4] = assay: 5-HTP induced head twitching mouse model; conditions: once a day for 14 days, 150 mg/Kg 5-HTP i.p. 0.5 h after last administration, counted in 20 min, blank control 34.1 ± 18.1, **P < 0.01
[5] = 1 mg/Kg (small dose) intragastric
[6] = 1.5 mg/Kg (medium dose) intragastric
[7] = 2 mg/Kg (large dose) intragastric

| Structure (SMILES) | Immobility Time, tail suspension test (ICR mice [1]; [5]) | Immobility Time, tail suspension test (ICR mice [1]; [6]) | Immobility Time, tail suspension test (ICR mice [1]; [7]) | Adverse reactions in patients (patients with depression) | Curative effective rate (patients with depression) [%] | Share of patients invalid (reduction rate of HAMD <25%) (patients with depression; 2 cases) [%] | Share of patients improved (reduction rate of HAMD from 25% to 50%) (patients with depression; 10 cases) [%] | Share of patients cured (reduction rate of HAMD >75%) (patients with depression; 14 cases) [%] | Share of patients significantly improved (reduction rate of HAMD from 51% to 75%) (patients with depression; 14 cases) [%] | Toxicity judged from weight and fur appearance of mice (ICR mice [2]) | Immobility Time, forced swimming test (ICR mice [3]; [5]) | Immobility Time, forced swimming test (ICR mice [3]; [6]) | Immobility Time, forced swimming test (ICR mice [3]; [7]) | Head-Twitching Number (ICR mice [4]; [5]) | Head-Twitching Number (ICR mice [4]; [6]) | Head-Twitching Number (ICR mice [4]; [7]) | Immobility Time, tail suspension test (ICR mice [1]; 20 mg/Kg intragastric) | Weight of mice before administration, one week and 2 weeks after administration (ICR mice [2]) | Immobility Time, forced swimming test (ICR mice [3]; 20 mg/Kg intragastric) | Head-Twitching Number (ICR mice [4]; 20 mg/Kg intragastric) |
| --- | --- | --- | --- | --- | --- | --- | --- | --- | --- | --- | --- | --- | --- | --- | --- | --- | --- | --- | --- | --- |
| C=C(C)[C@@H]1CCC2=CC(=O)C[C@@H](C)[C@]2(C)C1 [Nootkatone, nootkatone] | 84.0 ± 17.6** S | 80.2 ± 21.6** S | 75.1 ± 19.6** S | no case has adverse reactions | 95 | 5 | 25 | 35 | 35 | neither nootkatone nor the positive drug Prozac has toxicity | 74.0 ± 26.9** s | 70.2 ± 22.3** s | 66.1 ± 21.6** s | 58.0 ± 26.2** Time | 60.2 ± 25.1** Time | 63.1 ± 22.5** Time |  |  |  |  |
| CNCCC(Oc1ccc(C(F)(F)F)cc1)c1ccccc1 (centres unmarked) [Prozac, fluoxetine, reference compound] |  |  |  |  |  |  |  |  |  |  |  |  |  |  |  |  | 87.9 ± 22.0** S | no significant difference | 80.9 ± 20.4** s | 57.9 ± 10.4** Time |
